Data: PubChem BioAssay AID256 (DTP/NCI, 2004)
Several values for one entry are separate records, joined by “and”; a condition that tells them apart may be missing. Equal entries are not always repeated. Inconclusive results and toxic doses are left out. The calls were made as follows: active = survival T/C of 150% or more; inactive = T/C below 125% in these data.

Test system: CD2F1 mice, L1210 leukemia ip, survival T/C
Test: NCI In Vivo Anticancer Drug Screen. Data for tumor model L1210 Leukemia (intraperitoneal) in CD2F1 (CDF1) mice
Settings: endpoint: mean survival time, higher = longer survival
Procedure, shortened: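 Compound-dosed mice with transplantable tumor versus matched vehicle controls; endpoint ratio T/C reported.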

[1] = dose: 100.0 mg/kg/injection, schedule: Q04DX002 (ip), vehicle: saline with Tween-80
[2] = dose: 200.0 mg/kg/injection, schedule: Q04DX002 (ip), vehicle: saline with Tween-80
[3] = dose: 400.0 mg/kg/injection, schedule: Q04DX002 (ip), vehicle: saline with Tween-80
[4] = dose: 12.5 mg/kg/injection, schedule: Q01DX009 (ip), vehicle: saline
[5] = dose: 25.0 mg/kg/injection, schedule: Q01DX009 (ip), vehicle: saline
[6] = dose: 50.0 mg/kg/injection, schedule: Q01DX009 (ip), vehicle: saline
[7] = dose: 100.0 mg/kg/injection, schedule: Q01DX009 (ip), vehicle: saline
[8] = dose: 100.0 mg/kg/injection, schedule: Q01DX001 (ip), vehicle: saline with Tween-80
[9] = dose: 200.0 mg/kg/injection, schedule: Q01DX001 (ip), vehicle: saline with Tween-80
[10] = dose: 400.0 mg/kg/injection, schedule: Q01DX001 (ip), vehicle: saline with Tween-80
[11] = dose: 12.5 mg/kg/injection, schedule: Q04DX003 (ip), vehicle: saline with Tween-80
[12] = dose: 100.0 mg/kg/injection, schedule: Q04DX003 (ip), vehicle: saline with Tween-80
[13] = dose: 200.0 mg/kg/injection, schedule: Q01DX009 (ip), vehicle: saline
[14] = dose: 400.0 mg/kg/injection, schedule: Q01DX009 (ip), vehicle: saline

Measured: T/C

CCCCCCCC/C=C\CCCCCCCC(=O)NCCN1CCCCC1
inactive: dose: 75.0 mg/kg/injection, schedule: Q01DX001 (ip), vehicle: saline 100 % of control | dose: 150.0 mg/kg/injection, schedule: Q01DX001 (ip), vehicle: saline 96 % of control | dose: 300.0 mg/kg/injection, schedule: Q01DX001 (ip), vehicle: saline 96 % of control

Cc1cccc(Cl)c1NC(=O)/C=C/c1ccccc1
inactive: [1] 87 % of control | [2] 94 % of control | [3] 105 % of control

O=CC(=O)c1ccc(O)cc1
inactive: dose: 6.25 mg/kg/injection, schedule: Q01DX009 (ip), vehicle: saline 101 % of control | [4] 97 % of control | [5] 100 % of control | [6] 103 % of control | [7] 108 % of control

CCOC(=O)CSCC(=O)C(C)(C)C
inactive: [8] 98 % of control | [9] 98 % of control | [10] 102 % of control

CCN(CC)CCOc1ccc(/C(=C(\Cl)c2ccccc2)c2ccccc2)cc1
inactive: dose: 3.12 mg/kg/injection, schedule: Q04DX003 (ip), vehicle: saline with Tween-80 100 % of control | dose: 3.13 mg/kg/injection, schedule: Q01DX009 (ip), vehicle: saline with Tween-80 104 % of control | dose: 6.25 mg/kg/injection, schedule: Q01DX009 (ip), vehicle: saline with Tween-80 102 % of control | dose: 6.25 mg/kg/injection, schedule: Q04DX003 (ip), vehicle: saline with Tween-80 94 % of control | dose: 12.5 mg/kg/injection, schedule: Q01DX009 (ip), vehicle: saline with Tween-80 105 % of control | [11] 97 % of control | dose: 25.0 mg/kg/injection, schedule: Q01DX009 (ip), vehicle: saline with Tween-80 107 % of control | dose: 25.0 mg/kg/injection, schedule: Q04DX003 (ip), vehicle: saline with Tween-80 97 % of control | dose: 50.0 mg/kg/injection, schedule: Q01DX009 (ip), vehicle: saline with Tween-80 91 % of control | dose: 50.0 mg/kg/injection, schedule: Q04DX003 (ip), vehicle: saline with Tween-80 100 % of control | [12] 105 % of control

O=[N+]([O-])c1c[c]([Hg][Cl])c(O)[c]([Hg][Cl])c1
inactive: [11] 93 % of control

CC(=O)NC1=CC(OC(C)=O)C(COC(C)=O)OC1n1cnc2c1c(=O)n(C)c(=O)n2C (configuration not stated)
inactive: dose: 12.5 mg/kg/injection, schedule: Q01DX005 (ip), vehicle: distilled water + Tween-80 93 % of control | dose: 25.0 mg/kg/injection, schedule: Q01DX005 (ip), vehicle: distilled water + Tween-80 88 % of control | dose: 50.0 mg/kg/injection, schedule: Q01DX005 (ip), vehicle: distilled water + Tween-80 88 % of control | dose: 200.0 mg/kg/injection, schedule: Q01DX005 (ip), vehicle: distilled water + Tween-80 88 % of control

CC(C)N1CCC1CO (configuration not stated)
inactive: [5] 96 % of control | [6] 100 % of control | [7] 94 % of control

O=c1[nH]c(=O)c2n[nH]nc2[nH]1
inactive: dose: 23.0 mg/kg/injection, schedule: Q01DX009 (ip), vehicle: saline 104 % of control | dose: 35.0 mg/kg/injection, schedule: Q01DX009 (ip), vehicle: saline 101 % of control | [6] 98 % of control

O=C1C=CC(=O)N1c1ccc(Br)cc1 (tested in a mixture with another compound)
inactive: dose: 100.0 mg/kg/injection, schedule: Q01DX009 (ip), vehicle: acetone 98 % of control | dose: 200.0 mg/kg/injection, schedule: Q01DX009 (ip), vehicle: acetone 95 % of control

CN(Cc1ccc([N+](=O)[O-])cc1)N=Nc1ccc(C(=O)O)cc1
inactive: dose: 25.0 mg/kg/injection, schedule: Q01DX009 (ip), vehicle: other 94 % of control | dose: 50.0 mg/kg/injection, schedule: Q01DX009 (ip), vehicle: other 97 % of control | dose: 100.0 mg/kg/injection, schedule: Q01DX009 (ip), vehicle: other 86 % of control | dose: 200.0 mg/kg/injection, schedule: Q01DX009 (ip), vehicle: other 94 % of control

COc1ccc(C(=O)Nc2ccc(Br)cc2)cc1
inactive: [7] 93 % of control | [13] 108 % of control | [14] 98 % of control

NC(CSC1c2ccccc2-c2ccccc21)C(=O)O (configuration not stated)
inactive: [5] 102 % of control | [6] 103 % of control | [7] 102 % of control | [13] 96 % of control | [14] 103 % of control

O=C(CCCCCCCCC(=O)N/N=C/c1ccc(Cl)c(Cl)c1)N/N=C/c1ccc(Cl)c(Cl)c1
inactive: [8] 95 % of control | [9] 95 % of control | [10] 94 % of control

Cc1ccc(OC(=O)Nc2cc([N+](=O)[O-])ccc2[N+](=O)[O-])cc1
inactive: [1] 100 % of control | [2] 100 % of control | [3] 92 % of control

CC(=O)CC(=O)c1ccc(C(=O)CC(C)=O)cc1.[Fe]
inactive: [12] 96 % of control | dose: 200.0 mg/kg/injection, schedule: Q04DX003 (ip), vehicle: saline with Tween-80 89 % of control | dose: 400.0 mg/kg/injection, schedule: Q04DX003 (ip), vehicle: saline with Tween-80 104 % of control

CC(=O)NC1CCC(C(C)C)CC1 (configuration not stated)
inactive: dose: 50.0 mg/kg/injection, schedule: Q01DX001 (ip), vehicle: saline with Tween-80 102 % of control

COc1ccc2c(c1O)C1CCCCC13CCN(C)C3C2 (configuration not stated)
inactive: dose: 25.0 mg/kg/injection, schedule: Q04DX002 (ip), vehicle: saline with Tween-80 96 % of control | dose: 50.0 mg/kg/injection, schedule: Q04DX002 (ip), vehicle: saline with Tween-80 96 % of control | [8] 110 % of control | [1] 93 % of control and 97 % of control | [9] 98 % of control | [10] 100 % of control

CCCC(=O)Nc1ncnc2c1ncn2C1OC2COP(=O)(O)OC2C1OC(=O)CCC (configuration not stated)
inactive: [4] 109 % of control | dose: 12.5 mg/kg/injection, schedule: Q01DX009 (ip), vehicle: suspension in saline 98 % of control | [5] 97 % of control | dose: 25.0 mg/kg/injection, schedule: Q01DX009 (ip), vehicle: suspension in saline 100 % of control | [6] 98 % of control | dose: 50.0 mg/kg/injection, schedule: Q01DX009 (ip), vehicle: suspension in saline 100 % of control | [7] 101 % of control | dose: 100.0 mg/kg/injection, schedule: Q01DX009 (ip), vehicle: suspension in saline 105 % of control | [13] 98 % of control | dose: 200.0 mg/kg/injection, schedule: Q01DX009 (ip), vehicle: suspension in saline 94 % of control | [14] 103 % of control | dose: 400.0 mg/kg/injection, schedule: Q01DX009 (ip), vehicle: suspension in saline 115 % of control

C1c2nnnn2Cc2nnnn21
inactive: dose: 12.5 mg/kg/injection, schedule: Q04DX002 (ip), vehicle: saline 96 % of control | dose: 25.0 mg/kg/injection, schedule: Q04DX002 (ip), vehicle: saline 104 % of control | dose: 50.0 mg/kg/injection, schedule: Q04DX002 (ip), vehicle: saline 93 % of control

O=c1c2ccccc2on1-c1ncnc2nc[nH]c12
inactive: dose: 12.5 mg/kg/injection, schedule: Q01DX005 (ip), vehicle: other 105 % of control | dose: 25.0 mg/kg/injection, schedule: Q01DX005 (ip), vehicle: other 113 % of control | dose: 50.0 mg/kg/injection, schedule: Q01DX005 (ip), vehicle: other 111 % of control | dose: 100.0 mg/kg/injection, schedule: Q01DX005 (ip), vehicle: other 95 % of control

CN(C)C(=O)Sc1ccc(N(C)C)cc1
inactive: [2] 107 % of control | [3] 107 % of control
